Assay results taken from the supplement of paper PMC10307832.

Experiments:
Experiment in all cases: relative viability (nuclei count vs DMSO), 5 days (fraction); higher = more cells survive
Selisistat + Dasatinib = compound: C1CC(C2=C(C1)C3=C(N2)C=CC(=C3)Cl)C(=O)N [Selisistat] + Cc1nc(Nc2ncc(C(=O)Nc3c(C)cccc3Cl)s2)cc(N2CCN(CCO)CC2)n1 [Dasatinib] (partner 0.075 µM)
Summary of the method: (§1)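 Lung cancer cell lines in 1536-well plates were dosed by pin tool the day after seeding, either with one drug alone or with a fixed anchor-drug dose plus five library-drug doses (not always all listed) in √10 steps. After 5 days, cells were fixed and their nuclei stained in one step (final 0.05% Triton X-100, 1% formaldehyde, 1 ug/ml Hoechst), then counted on 4× images. Relative viability is the nuclei count in treated wells divided by that in vehicle wells. Values are medians of duplicate plates.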

Serdemetan + Trametinib = compound: c1ccc2c(CCNc3ccc(Nc4ccncc4)cc3)c[nH]c2c1 [Serdemetan] + CC(=O)Nc1cccc(-n2c(=O)n(C3CC3)c(=O)c3c(Nc4ccc(I)cc4F)n(C)c(=O)c(C)c32)c1 [Trametinib] (partner 0.02 µM)
Summary of the method: as §1

Serdemetan + Foretinib = compound: c1ccc2c(CCNc3ccc(Nc4ccncc4)cc3)c[nH]c2c1 [Serdemetan] + COc1cc2c(Oc3ccc(NC(=O)C4(C(=O)Nc5ccc(F)cc5)CC4)cc3F)ccnc2cc1OCCCN1CCOCC1 [Foretinib] (partner 0.25 µM)
Summary of the method: as §1

Serdemetan + Pictilisib = compound: c1ccc2c(CCNc3ccc(Nc4ccncc4)cc3)c[nH]c2c1 [Serdemetan] + CS(=O)(=O)N1CCN(Cc2cc3nc(-c4cccc5[nH]ncc45)nc(N4CCOCC4)c3s2)CC1 [Pictilisib] (partner 1 µM)
Summary of the method: as §1

Cell Line	relative viability (Selisistat + Dasatinib; first compound 0.4 µM)	relative viability (Selisistat + Dasatinib; first compound 1.265 µM)	relative viability (Selisistat + Dasatinib; first compound 4 µM)	relative viability (Selisistat + Dasatinib; first compound 12.65 µM)	relative viability (Selisistat + Dasatinib; first compound 40 µM)	relative viability (Serdemetan + Trametinib; first compound 0.04 µM)	relative viability (Serdemetan + Trametinib; first compound 0.1265 µM)	relative viability (Serdemetan + Trametinib; first compound 0.4 µM)	relative viability (Serdemetan + Trametinib; first compound 1.265 µM)	relative viability (Serdemetan + Trametinib; first compound 4 µM)	relative viability (Serdemetan + Foretinib; first compound 0.04 µM)	relative viability (Serdemetan + Foretinib; first compound 0.1265 µM)	relative viability (Serdemetan + Foretinib; first compound 0.4 µM)	relative viability (Serdemetan + Foretinib; first compound 4 µM)	relative viability (Serdemetan + Pictilisib; first compound 0.04 µM)	relative viability (Serdemetan + Pictilisib; first compound 0.1265 µM)	relative viability (Serdemetan + Pictilisib; first compound 0.4 µM)	relative viability (Serdemetan + Pictilisib; first compound 1.265 µM)	relative viability (Serdemetan + Pictilisib; first compound 4 µM)	relative viability (Serdemetan + Foretinib; first compound 1.265 µM)
SK-LU-1	0.166	0.176	0.186	0.191	0.184	0.485	0.464	0.444	0.332	0.44	0.767	0.745	0.77	0.61	0.572	0.47	0.713	0.494	0.407	
ChaGo-K-1	0.562	0.551	0.563	0.539	0.592	0.875	0.805	0.602	0.266	0.293	0.9	0.703	0.566	0.296		0.832	0.649	0.421	0.659	0.335
COR-L 105	0.339	0.357		0.297	0.32	0.435	0.482	0.366	0.487	0.491	0.979	0.866	0.9	0.772	0.366	0.486	0.322	0.427	0.37	0.839
NCI-H1975	0.346	0.383	0.195	0.314	0.345	0.403	0.381	0.331	0.305	0.371	0.866	0.849	0.982	0.987	0.302	0.355	0.317	0.338	0.31	
NCI-H1993	0.629	0.655	0.501	0.672	0.589	0.549	0.516	0.413	0.599	0.494	0.888	0.813	0.692	0.672	0.815	0.884	0.809		0.761	0.76
RERF-LC-KJ	1.04	0.813	0.818	0.625	0.568	0.896	0.874	0.898	0.793	0.778	0.836	0.884	0.786	0.887	0.433	0.561	0.569	0.475	0.388	0.79
NCI-H23	0.784	0.95	0.571	0.8	0.772	0.354	0.399	0.426		0.363	0.891	1.01	0.831	0.706	0.536	0.571	0.459	0.439	0.543	0.791
HCC-366	0.591	0.606	0.297	0.599	0.588	0.279	0.114	0.0617	0.0278	0.0741	0.948	0.812	0.197	0.0559	0.204	0.151	0.0985	0.141	0.168	0.073
EMC-BAC-2	0.355	0.367	0.378	0.317	0.315	0.833	0.889	0.886	0.754	0.719	0.969	1.02	1.04	0.676	0.564	0.556	0.507	0.508	0.502	0.809
NCI-H2405	0.221	0.189	0.178	0.204	0.276	0.709	0.655	0.64	0.587	0.558	1.03	1.01	1.01	0.764	0.457	0.403	0.491	0.42	0.41	0.902
NCI-H358	0.201	0.158	0.114	0.235	0.226	0.135	0.144	0.12	0.0947	0.109	0.641	0.773	0.732	0.477	0.364	0.368	0.332	0.281	0.317	0.549
NCI-H1944	0.24	0.205		0.22	0.2	0.424	0.39	0.332	0.274	0.278	0.832	0.836	0.828	0.392	0.354	0.383	0.34		0.338	0.406
EPLC-272H	0.352	0.33		0.369	0.381	0.32	0.281	0.28	0.292	0.25	0.881	0.684	0.305	0.477	0.365	0.348	0.293	0.27	0.33	0.459
NCI-H1915	0.322	0.312	0.261	0.319	0.313	0.3	0.309	0.286	0.257	0.242	1.14	1.09	1.07	0.837	0.966	1.01	0.921	0.811	0.985	1.03
NCI-H596	0.673	0.53	0.493	0.707	0.545	0.894	0.883	0.618	0.526	0.517	0.87	0.703	0.684	0.402	0.41	0.411	0.346	0.332	0.339	0.355
NCI-H322M	0.266	0.259	0.243	0.26	0.26	0.502	0.528	0.488	0.427	0.431	0.946	0.887	0.909	0.481	0.519	0.505	0.468	0.552	0.516	0.963
NCI-H2228	0.68	0.577	0.449	0.536	0.557	0.564	0.523	0.327	0.115	0.172	0.755	0.518	0.784	0.258	0.322	0.26	0.327	0.257	0.214	0.303

Cell Line	relative viability (Selisistat + Dasatinib; first compound 0.4 µM)	relative viability (Selisistat + Dasatinib; first compound 1.265 µM)	relative viability (Selisistat + Dasatinib; first compound 4 µM)	relative viability (Selisistat + Dasatinib; first compound 12.65 µM)	relative viability (Selisistat + Dasatinib; first compound 40 µM)	relative viability (Serdemetan + Trametinib; first compound 0.04 µM)	relative viability (Serdemetan + Trametinib; first compound 0.1265 µM)	relative viability (Serdemetan + Trametinib; first compound 0.4 µM)	relative viability (Serdemetan + Trametinib; first compound 1.265 µM)	relative viability (Serdemetan + Trametinib; first compound 4 µM)	relative viability (Serdemetan + Foretinib; first compound 0.04 µM)	relative viability (Serdemetan + Foretinib; first compound 0.1265 µM)	relative viability (Serdemetan + Foretinib; first compound 0.4 µM)	relative viability (Serdemetan + Foretinib; first compound 4 µM)	relative viability (Serdemetan + Pictilisib; first compound 0.04 µM)	relative viability (Serdemetan + Pictilisib; first compound 0.1265 µM)	relative viability (Serdemetan + Pictilisib; first compound 0.4 µM)	relative viability (Serdemetan + Pictilisib; first compound 1.265 µM)	relative viability (Serdemetan + Pictilisib; first compound 4 µM)	relative viability (Serdemetan + Foretinib; first compound 1.265 µM)
NCI-H647	0.229	0.186	0.176	0.154	0.218	0.482	0.475	0.558	0.361	0.304	1.2	1.15	1.1	0.801	0.359	0.313	0.499	0.392	0.445	1.17
SK-MES-1	0.451	0.294	0.293	0.346	0.264	0.48	0.538	0.531	0.532	0.563	0.877	0.915	0.842	0.534	0.333	0.378	0.377	0.363	0.205	0.847
NCI-H2170	0.468	0.47	0.521	0.563	0.63	0.912	0.988	0.87	0.9	0.944	1.02	0.97	1.05	1.14	0.365	0.34	0.311	0.28	0.349	0.637
NCI-H2085	0.262	0.219	0.204	0.27	0.257	0.467	0.552	0.289	0.264	0.301	1	0.899	1	0.533	0.486	0.516	0.483	0.357	0.438	0.936
SW 1573	0.567	0.385	0.456	0.616	0.499	0.595	0.6	0.465	0.412	0.256	0.898	0.815	0.877	0.422	0.533	0.545	0.494	0.182	0.177	0.668
NCI-H727	0.468	0.419		0.454	0.498	0.376	0.37	0.367	0.382	0.33	0.831	0.737	1.32	0.437	0.327	0.421	0.412	0.346	0.299	0.634
NCI-H441	0.623	0.671	0.427	0.549	0.62	0.462	0.508	0.436	0.435	0.414	1.05	0.918	0.981	0.872	0.486	0.481	0.418	0.277	0.384	0.99
LOU-NH91	0.611	0.54	0.515	0.534	0.598	0.782	0.798			0.839	0.928	0.927	0.63	0.873	0.519	0.484		0.433	0.496	0.952
NCI-H3122	0.999	0.736	0.639	0.842	0.791	0.246	0.238	0.252	0.245	0.206	0.992	0.932	0.972	1.01	0.627	0.669	0.6		0.55	
NCI-H460	0.61	0.513	0.196	0.478	0.477	0.0926	0.172	0.134	0.0472	0.0554	0.895	1.01	0.883	0.104	0.339	0.366	0.27	0.287	0.253	0.597
NCI-H650	0.427	0.469	0.52	0.382	0.493	0.891	0.937	0.986	0.903	0.612	0.986	1.01	1.08	0.777	0.743	0.778	0.977	0.793	0.746	0.936
NCI-H661	0.806	0.94	0.57	0.726	0.694	0.551	0.603	0.621	0.512	0.517	1	1.01	1.02	0.796	0.589	0.356	0.383	0.342	0.361	0.924
NCI-H1793	0.359	0.394		0.426	0.344	0.447	0.375	0.346	0.227	0.267	0.663	0.716	0.446	0.245	0.302	0.415	0.31	0.163	0.199	0.363
NCI-H1734	0.48	0.469	0.622	0.502	0.464	0.555	0.358	0.246	0.147	0.161	0.692	0.335	0.223	0.204	0.466		0.354	0.163	0.242	0.126
LXF-289	0.286	0.239	0.305	0.245	0.303	0.638	0.624	0.652	0.621	0.503	1.02	1.01	0.951	0.793	0.792	0.783	0.662	0.701	0.707	0.62
H3255	0.385	0.369	0.309	0.331	0.428	0.618	0.561		0.464	0.516	1.02	0.845	0.833	0.708	0.5	0.403	0.423	0.497	0.435	0.727
